Where two headings read alike, the source gives them in different places.
Key:
HT29 cells = experiment: cells; conditions: Homo sapiens, HT-29, 72 h
In short: (§1)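 Cells seeded at 5000/well, attached 18 h, then treated 72 h with ten 2/5 serial dilutions (10 to 0.003 μg/mL, 1% final DMSO) in triplicate. Growth measured by SRB staining after glutaraldehyde fixation, with time-zero plate; values from NCI algorithm and four-parameter logistic fit.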

MDA-MB-231 cells = experiment: cells; conditions: Homo sapiens, MDA-MB-231, 72 h
In short: as §1

PSN1 cells = experiment: cells; conditions: Homo sapiens, PSN1, 72 h
In short: as §1

A549 cells = experiment: cells; conditions: Homo sapiens, A549, 72 h
In short: as §1

A2780 tumors = conditions: iv, 3 mg/kg
Description: (§2) Female athymic nu/nu mice (Harlan Laboratories Models, S. L. Barcelona, Spain or Envigo, Spain) were utilized for all experiments. Animal were housed in individually ventilated cages Sealsafe® Plus, Techniplast S.P.A.), up to ten per cage on a 12-hour light-dark cycle at 21-23° C. and 40-60% humidity. […] Animals were acclimated for at least 5 days prior to tumor implantation with a tumor cell suspension.
Culture cells were passaged every 3 to 5 days upon reaching confluence. Each animal was subcutaneously implanted (on the right flank using 26 G needle and a 1 cc syringe) at 4-6 weeks of age with 10×10^6 A2780 cells suspended in 0.05 mL of a solution consisting of 50% Matrigel® (Corning Incorporated Life Sciences) and 50% medium without serum or antibiotics.
(§3) Treatment tolerability was assessed by monitoring body weight evolution, clinical signs of systemic toxicity, as well as evidences of local damage in the injection site.
In xenograft studies with other cell lines: • Tumor volume was calculated using the equation (a·b^2)/2, where a: length (longest diameter) and b: width (shortest diameter) were measured in mm by using digital caliper (Fowler Sylvac, S235PAT).
(§4) Treatments producing >20% lethality and/or 20% net body weight loss were considered toxic.

[1] = MTMD (Maximum Tolerated Multiple Dose) determination, iv weekly x3; assay type: in vivo; conditions: mice; iv/Q7dx3
Description: Female CD-1 or Athymic Nude-Fox1 nu/nu mice (Envigo) were utilized for all experiments. […] Animals were acclimated for five days prior to being individually tattoo-identified. Animal protocols were reviewed and approved according to the regional Institutional Animal Care and Use Committees.
Mice were randomly allocated into experimental groups and intravenously administered, once for the MTD (Maximum Tolerated Dose) determination or one administration a week during three consecutive weeks, for the MTMD (Maximum Tolerated Multiple Dose) determination study. The animals were administered with white formulation or with compound dissolved in the experimental formulation at different concentrations. The volume administered was always 10 mL/kg. Once administered, animals were monitored for clinical signs of systemic toxicity, changes in body weight and mortality up to 14 days after the administration.

H526 tumors = experiment: In vivo xenograft, human lung (SCLC) H526; conditions: iv weekly, 39-S […], C 3 mg/Kg
H460 tumors = conditions: iv, 3 mg/kg
Description: as §2
H460 cells were maintained in vitro at 37° C. with 5% CO2 in Dulbecco's Modified Eagle's Medium (Sigma-Aldrich, Co). Culture cells were passaged every 3 to 5 days upon reaching confluence. Each animal was subcutaneously implanted (on the right flank using 26 G needle and a 1 cc syringe) at 4-6 weeks of age with 5×10^6 H460 cells suspended in 0.05 mL of a solution consisting of 50% Matrigel® (Corning Incorporated Life Sciences) and 50% medium without serum or antibiotics.
as §3, §4

HGC27 tumors = conditions: iv, 3 mg/kg
Description: as §2
HGC27 cells were maintained in vitro at 37° C. with 5% CO2 in Iscove's Modified Dulbecco's Medium (Sigma Aldrich, Co). Culture cells were passage every 3 to 5 days on reaching confluence. Each animal was subcutaneously implanted (on the right flank using 26 G needle and a 1 cc syringe) at 4-6 weeks of age with 5×10^6 HGC-27 cells suspended in 0.05 mL of a solution consisting of 50% Matrigel® (Corning Incorporated Life Sciences), 50% medium without serum or antibiotics.
as §3, §4

With `COc1c(C)cc2c(c1O)[C@@H]1[C@@H]3[C@@H]4SC[C@]5(N[C@H](C)Cc6c5[nH]c5ccccc65)C(=O)OC[C@@H](c5c6c(c(C)c(OC(C)=O)c54)OCO6)N3[C@@H](O)[C@H](C2)N1C` [C] as the compound, how does the GI50 (HT29 cells) read?
Its GI50 is 0.0208 µM.

What about the CC50 (HT29 cells; read-out: LC50) of the same compound?
The CC50 was > 0.13 µM.

And the IC (TGI) (HT29 cells; read-out: TGI)?
The IC (TGI) was 0.0234 µM.

What about the GI50 (MDA-MB-231 cells) of the same compound?
The GI50 was 0.026 µM.

What about the CC50 (MDA-MB-231 cells; read-out: LC50) of the same compound?
Its CC50 is > 0.13 µM.

What about the IC (TGI) (MDA-MB-231 cells; read-out: TGI) of the same compound?
Its IC (TGI) is 0.0546 µM.

What about the GI50 (PSN1 cells) of the same compound?
The GI50 was 0.0364 µM.

What about the CC50 (PSN1 cells; read-out: LC50) of the same compound?
The CC50 was 0.065 µM.

And the IC (TGI) (PSN1 cells; read-out: TGI)?
Its IC (TGI) is 0.0442 µM.

What about the GI50 (A549 cells) of the same compound?
The GI50 was 0.0273 µM.

And the CC50 (A549 cells; read-out: LC50)?
Its CC50 is > 0.13 µM.

What about the IC (TGI) (A549 cells; read-out: TGI) of the same compound?
Its IC (TGI) is 0.0663 µM.

What about the “Median Tumor Volume” value (A2780 tumors; 0 h) of the same compound?
The value was 169.6 mm^3.

And the “Median Tumor Volume” value (A2780 tumors; 48 h)?
Its value is 206.3 mm^3.

And the “Median Tumor Volume” value (A2780 tumors; 120 h)?
Its value is 372.7 mm^3.

And the “Median Tumor Volume” value (A2780 tumors; 168 h)?
The value was 607.6 mm^3.

What about the “Median Tumor Volume” value (A2780 tumors; 336 h) of the same compound?
Its value is 1293.9 mm^3.

What about the “Median Tumor Volume” value (A2780 tumors; 384 h) of the same compound?
Its value is 1683.5 mm^3.

What about the “Median Tumor Volume” value (A2780 tumors; 456 h) of the same compound?
Its value is 2137.5 mm^3.

What about the MTMD [1] of the same compound?
Its MTMD is 3.0 mg/kg.

And the “Median Tumor Volume” value (H526 tumors; Table 49, Day 0)?
The value was 217.9 mm^3.

And the “Median Tumor Volume” value (H526 tumors; Table 49, Day 2)?
Its value is 262.4 mm^3.

What about the “Median Tumor Volume” value (H526 tumors; Table 49, Day 4) of the same compound?
The value was 108.3 mm^3.

And the “Median Tumor Volume” value (H526 tumors; Table 49, Day 7)?
The value was 129.8 mm^3.

What about the “Median Tumor Volume” value (H526 tumors; Table 49, Day 9) of the same compound?
Its value is 85.9 mm^3.

And the “Median Tumor Volume” value (H526 tumors; Table 49, Day 11)?
Its value is 52.3 mm^3.

And the “Median Tumor Volume” value (H526 tumors; Table 49, Day 14)?
The value was 54.1 mm^3.

And the “Median Tumor Volume” value (H526 tumors; Table 49, Day 16)?
Its value is 47.3 mm^3.

And the “Median Tumor Volume” value (H526 tumors; Table 49, Day 21)?
Its value is 4.0 mm^3.

What about the “Median Tumor Volume” value (H526 tumors; Table 49, Day 28) of the same compound?
The value was 4.0 mm^3.

What about the “Median Tumor Volume” value (H526 tumors; Table 49, Day 35) of the same compound?
Its value is 4.0 mm^3.

And the “Median Tumor Volume” value (H526 tumors; Table 49, Day 42)?
The value was 62.5 mm^3.

What about the “Median Tumor Volume” value (H526 tumors; Table 49, Day 49) of the same compound?
The value was 53.5 mm^3.

And the “Median Tumor Volume” value (H526 tumors; Table 49, Day 56)?
The value was 70.0 mm^3.

And the “Median Tumor Volume” value (H526 tumors; Table 49, Day 63)?
The value was 132.3 mm^3.

And the “Median Tumor Volume” value (H526 tumors; Table 49, Day 70)?
Its value is 368.5 mm^3.

What about the “Median Tumor Volume” value (H526 tumors; Table 49, Day 77) of the same compound?
The value was 465.8 mm^3.

And the “Median Tumor Volume” value (H526 tumors; Table 49, Day 84)?
Its value is 107.4 mm^3.

And the “Median Tumor Volume” value (H526 tumors; Table 49, Day 91)?
The value was 130.0 mm^3.

And the “Median Tumor Volume” value (H526 tumors; Table 49, Day 98)?
Its value is 4.0 mm^3.

And the “Median Tumor Volume” value (H526 tumors; Table 49, Day 105)?
Its value is 4.0 mm^3.

And the “Median Tumor Volume” value (H526 tumors; Table 49, Day 112)?
Its value is 4.0 mm^3.

And the “Median Tumor Volume” value (H526 tumors; Table 49, Day 119)?
The value was 4.0 mm^3.

What about the “Median Tumor Volume” value (H526 tumors; Table 49, Day 126) of the same compound?
The value was 4.0 mm^3.

What about the “Median Tumor Volume” value (H526 tumors; Table 49, Day 133) of the same compound?
The value was 4.0 mm^3.

What about the “Median Tumor Volume” value (H526 tumors; Table 49, Day 140) of the same compound?
The value was 4.0 mm^3.

What about the “Median Tumor Volume” value (H526 tumors; Table 49, Day 147) of the same compound?
The value was 4.0 mm^3.

What about the “Median Tumor Volume” value (H526 tumors; Table 49, Day 165) of the same compound?
Its value is 4.0 mm^3.

What about the “Median Tumor Volume” value (H526 tumors; Table 49, Day 175) of the same compound?
The value was 4.0 mm^3.

What about the “Median Tumor Volume” value (H526 tumors; Table 49, Day 191) of the same compound?
Its value is 4.0 mm^3.

And the “Median Tumor Volume” value (H526 tumors; Table 49, Day 205)?
The value was 4.0 mm^3.

What about the “Median Tumor Volume” value (H460 tumors; 0 h) of the same compound?
The value was 186.1 mm^3.

And the “Median Tumor Volume” value (H460 tumors; 48 h)?
Its value is 395.4 mm^3.

And the “Median Tumor Volume” value (H460 tumors; 120 h)?
The value was 665.9 mm^3.

What about the “Median Tumor Volume” value (H460 tumors; 168 h) of the same compound?
Its value is 929.5 mm^3.

And the “Median Tumor Volume” value (H460 tumors; 336 h)?
Its value is 2025.0 mm^3.

And the “Median Tumor Volume” value (H460 tumors; 384 h)?
Its value is 2025.0 mm^3.

And the “Median Tumor Volume” value (HGC27 tumors; 0 h)?
The value was 195.0 mm^3.

What about the “Median Tumor Volume” value (HGC27 tumors; 48 h) of the same compound?
The value was 391.0 mm^3.

What about the “Median Tumor Volume” value (HGC27 tumors; 120 h) of the same compound?
Its value is 578.6 mm^3.

And the “Median Tumor Volume” value (HGC27 tumors; 168 h)?
The value was 708.2 mm^3.

What about the “Median Tumor Volume” value (HGC27 tumors; 336 h) of the same compound?
The value was 1496.8 mm^3.

And the “Median Tumor Volume” value (HGC27 tumors; 384 h)?
The value was 1690.6 mm^3.

And the “Median Tumor Volume” value (HGC27 tumors; 456 h)?
The value was 2004.0 mm^3.

And the “Median Tumor Volume” value (HGC27 tumors; 504 h)?
Its value is 1741.4 mm^3.

What about the “Median Tumor Volume” value (HGC27 tumors; 552 h) of the same compound?
The value was 2056.4 mm^3.

Reference: patent US10538535B2, “Antitumoral compounds” (priority 2017, dated 2020)
